Measurements published in ChEMBL document CHEMBL5247656, “Discovery of a Potent, Cooperative, and Selective SOS1 PROTAC ZZ151 with In Vivo Antitumor Efficacy in KRAS-Mutant Cancers” (J Med Chem, 2023).
The source made the active and inactive calls. No cut-off for these calls is given here.

What was measured:
[1] = target: T1, von Hippel-Lindau disease tumor suppressor/Son of sevenless homolog 1 (Homo sapiens) (UniProt Q07889+P40337); assay: PROTAC activity at VHL/SOS1 in human NCI-H358 cells assessed as induction of SOS1 protein degradation at 1.0 uM incubated for 24 hrs by Immunoblot analysis relative to control; type: cell-based
[2] = target: T1, von Hippel-Lindau disease tumor suppressor/Son of sevenless homolog 1 (Homo sapiens); assay: PROTAC activity at VHL/SOS1 in human NCI-H358 cells assessed as induction of SOS1 protein degradation at 0.1 uM incubated for 24 hrs by Immunoblot analysis relative to control; type: cell-based
[3] = target: T2, Son of sevenless homolog 1 (Homo sapiens) (UniProt Q07889); assay: Co-operativity factor, ratio of Kd for binding affinity to GST-tagged human SOS1 (564 to 1049 reisudes) expressed in Escherichia coli BL21 (DE3) cells assessed as binary complex formation to Kd for binding affinity to GST-tagged human SOS1 (564 to 1049 residues) expressed in Escherichia coli BL21 (DE3) cells assessed as ternary complex formation in the presence of 6His tagged human VCB
T2 sequence (whole entry): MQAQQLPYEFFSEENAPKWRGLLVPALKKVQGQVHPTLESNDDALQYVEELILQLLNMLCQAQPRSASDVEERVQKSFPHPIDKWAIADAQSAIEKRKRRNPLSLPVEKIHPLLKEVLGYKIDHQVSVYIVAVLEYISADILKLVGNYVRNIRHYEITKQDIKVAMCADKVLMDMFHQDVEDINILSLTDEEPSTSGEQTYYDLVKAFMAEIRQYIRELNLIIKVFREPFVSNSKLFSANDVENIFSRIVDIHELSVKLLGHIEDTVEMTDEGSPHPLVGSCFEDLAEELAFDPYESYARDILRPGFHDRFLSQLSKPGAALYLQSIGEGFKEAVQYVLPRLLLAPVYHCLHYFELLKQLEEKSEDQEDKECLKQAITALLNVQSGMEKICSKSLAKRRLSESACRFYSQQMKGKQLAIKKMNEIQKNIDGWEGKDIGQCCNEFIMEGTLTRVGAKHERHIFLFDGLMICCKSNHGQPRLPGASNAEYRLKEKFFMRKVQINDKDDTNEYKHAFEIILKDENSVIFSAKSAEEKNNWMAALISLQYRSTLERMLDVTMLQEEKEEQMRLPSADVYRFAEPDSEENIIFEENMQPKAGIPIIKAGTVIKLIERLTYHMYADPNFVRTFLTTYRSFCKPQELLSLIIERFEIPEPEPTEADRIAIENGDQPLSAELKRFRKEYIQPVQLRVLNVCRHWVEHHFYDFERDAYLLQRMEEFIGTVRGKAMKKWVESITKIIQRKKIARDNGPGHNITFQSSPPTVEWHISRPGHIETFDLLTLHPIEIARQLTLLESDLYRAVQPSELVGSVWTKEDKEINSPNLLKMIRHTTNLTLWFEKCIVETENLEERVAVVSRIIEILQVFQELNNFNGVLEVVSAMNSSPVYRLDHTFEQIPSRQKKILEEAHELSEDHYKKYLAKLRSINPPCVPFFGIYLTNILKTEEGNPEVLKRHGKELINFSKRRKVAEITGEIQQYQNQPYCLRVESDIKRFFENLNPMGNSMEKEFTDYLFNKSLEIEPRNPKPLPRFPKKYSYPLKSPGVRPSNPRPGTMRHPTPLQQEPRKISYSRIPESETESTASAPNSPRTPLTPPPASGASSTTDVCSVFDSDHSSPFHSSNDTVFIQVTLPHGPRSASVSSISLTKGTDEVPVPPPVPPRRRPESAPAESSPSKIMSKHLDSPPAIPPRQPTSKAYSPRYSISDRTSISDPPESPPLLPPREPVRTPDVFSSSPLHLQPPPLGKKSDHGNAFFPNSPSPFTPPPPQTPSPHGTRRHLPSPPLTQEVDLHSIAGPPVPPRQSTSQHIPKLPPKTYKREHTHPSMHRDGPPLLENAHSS

[4] = target: von Hippel-Lindau disease tumor suppressor/Son of sevenless homolog 1/Elongin-B/Elongin-C (Homo sapiens) (UniProt Q07889+P40337+Q15370+Q15369); assay: Binding affinity to GST tagged human SOS1(564 to 1049 residues)-6his tagged human VHL (54 to 213 residues)-human ElonginC (17 to 112 residues)-human ElonginB (1 to 104 residues) expressed in Escherichia coli BL21 (DE3) cells assessed as ternary complex formation by measuring maximal HTRF signals incubated for 15 mins by HTRF analysis
[5] = target: T3, Son of sevenless homolog 1 (Homo sapiens, UniProt Q07889); assay: Binding affinity to GST-tagged human SOS1 (564 to 1049 residues) expressed in Escherichia coli BL21 (DE3) cells assessed as ternary complex formation by measuring dissociation constant incubated for 15 mins in the presence of 6His tagged human VCB by fluorescence polarization-based displacement assay
T3 sequence (Q07889 whole entry): T2 sequence (whole entry)

[6] = target: T3, Son of sevenless homolog 1; assay: Binding affinity to GST-tagged human SOS1 (564 to 1049 residues) expressed in Escherichia coli BL21 (DE3) cells assessed as binary complex formation by measuring dissociation constant incubated for 15 mins by fluorescence polarization-based displacement assay
[7] = target: T1, von Hippel-Lindau disease tumor suppressor/Son of sevenless homolog 1 (Homo sapiens); assay: PROTAC activity at VHL/SOS1 in human NCI-H358 cells assessed as induction of SOS1 protein degradation by measuring maximal efficacy at 2 to 2000 nM incubated for 24 hrs by Immunoblot analysis relative to control; type: cell-based; settings: dose 2-2000 nM
[8] = target: von Hippel-Lindau disease tumor suppressor/Son of sevenless homolog 1 (Homo sapiens, UniProt P40337+Q07889); assay: PROTAC activity at VHL/SOS1 in human NCI-H358 cells assessed as induction of SOS1 protein degradation incubated for 24 hrs by Immunoblot analysis; type: cell-based
LoVo = assay: Antiproliferative activity against human LoVo cells harboring KRAS G13D mutant assessed as inhibition of cell proliferation incubated for 7 days by CellTiterGlo-3D proliferation assay; type: functional, cell-based; settings: 168 h
SW-620 = assay: Antiproliferative activity against human SW620 cells harboring KRAS G12V mutant assessed as inhibition of cell proliferation incubated for 7 days by CellTiterGlo-3D proliferation assay; type: functional, cell-based; settings: SW-620, 168 h
PANC-1 = assay: Antiproliferative activity against human PANC-1 cells harboring KRAS G12D mutant assessed as inhibition of cell proliferation incubated for 7 days by CellTiterGlo-3D proliferation assay; type: functional, cell-based; settings: PANC-1, 168 h
NCI-H358 = assay: Antiproliferative activity against human NCI-H358 cells harboring KRAS G12C mutant assessed as inhibition of cell proliferation incubated for 7 days by CellTiterGlo-3D proliferation assay; type: functional, cell-based; settings: NCI-H358, 168 h
A549 = assay: Antiproliferative activity against human A549 cells harboring KRAS G12S mutant assessed as inhibition of cell proliferation incubated for 7 days by CellTiterGlo-3D proliferation assay; type: functional, cell-based; settings: A549, 168 h
[9] = target: T2, Son of sevenless homolog 1 (Homo sapiens); assay: Induction of SOS1 degradation in human NCI-H358 cells at 0.1 to 1 uM incubated for 24 hrs by immunoblot analysis; type: cell-based; settings: dose 0.1-1 µM
ASPC1 = assay: Antiproliferative activity against human ASPC1 cells harboring KRAS G12D mutant assessed as inhibition of cell proliferation incubated for 7 days by CellTiterGlo-3D proliferation assay; type: functional, cell-based; settings: ASPC1, 168 h
MIA PaCa-2 = assay: Antiproliferative activity against human MIA PaCa-2 cells harboring KRAS G12C mutant assessed as inhibition of cell proliferation incubated for 7 days by CellTiterGlo-3D proliferation assay; type: functional, cell-based; settings: MIA PaCa-2, 168 h

| SMILES | Activity [1] | Activity [2] | Ratio [3] | Activity [4] | Kd [5] | Kd [6] | Emax [7] | also measured |
| --- | --- | --- | --- | --- | --- | --- | --- | --- |
| COc1cc2nc(C)nc(N[C@H](C)c3cc(N)cc(C(F)(F)F)c3)c2cc1C1CCN(C(=O)[C@H]2CC[C@H](C(=O)N[C@H](C(=O)N3C[C@H](O)C[C@H]3C(=O)N[C@@H](C)c3ccc(-c4scnc4C)cc3)C(C)(C)C)CC2)CC1 | 8.52% | 3.24% |  |  |  |  |  |  |
| COc1cc2nc(C)nc(N[C@H](C)c3cc(N)cc(C(F)(F)F)c3)c2cc1C1CCN(C(=O)CCCC(=O)N[C@H](C(=O)N2C[C@H](O)C[C@H]2C(=O)N[C@@H](C)c2ccc(-c3scnc3C)cc2)C(C)(C)C)CC1 | 11.7% | 9.28% |  |  |  |  |  |  |
| COc1cc2nc(C)nc(N[C@H](C)c3cc(N)cc(C(F)(F)F)c3)c2cc1C1CCN(C(=O)CCCCCCCCC(=O)N[C@H](C(=O)N2C[C@H](O)C[C@H]2C(=O)N[C@@H](C)c2ccc(-c3scnc3C)cc2)C(C)(C)C)CC1 | 0% | 0% |  |  |  |  |  |  |
| COc1cc2nc(C)nc(N[C@H](C)c3cc(N)cc(C(F)(F)F)c3)c2cc1C1CCN(C(=O)CCCCCCC(=O)N[C@H](C(=O)N2C[C@H](O)C[C@H]2C(=O)N[C@@H](C)c2ccc(-c3scnc3C)cc2)C(C)(C)C)CC1 | 47.3% | 25.2% | 2.9 | inactive | 27.1 nM | 78.6 nM | 39.7% |  |
| COc1cc2nc(C)nc(N[C@H](C)c3cc(N)cc(C(F)(F)F)c3)c2cc1C1CCN(CCCCCC(=O)N[C@H](C(=O)N2C[C@H](O)C[C@H]2C(=O)N[C@@H](C)c2ccc(-c3scnc3C)cc2)C(C)(C)C)CC1 | 2.02% | 3.04% |  |  |  |  |  |  |
| COc1cc2nc(C)nc(N[C@H](C)c3cc(N)cc(C(F)(F)F)c3)c2cc1C1CCN(C(=O)CCCCCCCC(=O)N[C@H](C(=O)N2C[C@H](O)C[C@H]2C(=O)N[C@@H](C)c2ccc(-c3scnc3C)cc2)C(C)(C)C)CC1 | 80.2% | 31.4% |  |  |  |  |  |  |
| COc1cc2nc(C)nc(N[C@H](C)c3cc(N)cc(C(F)(F)F)c3)c2cc1C1CCN(CCCCCCC(=O)N[C@H](C(=O)N2C[C@H](O)C[C@H]2C(=O)N[C@@H](C)c2ccc(-c3scnc3C)cc2)C(C)(C)C)CC1 | 10.7% | 9.77% | 2.7 | inactive | 16.3 nM | 44.2 nM | 9.1% |  |
| COc1cc2nc(C)nc(N[C@H](C)c3cc(N)cc(C(F)(F)F)c3)c2cc1C1CCN(C(=O)CCCCCCCCCC(=O)N[C@H](C(=O)N2C[C@H](O)C[C@H]2C(=O)N[C@@H](C)c2ccc(-c3scnc3C)cc2)C(C)(C)C)CC1 | 37.9% | 9.65% |  |  |  |  |  |  |
| COc1cc2nc(C)nc(N[C@H](C)c3cc(N)cc(C(F)(F)F)c3)c2cc1C1CCN(C(=O)C2CCN(CCC(=O)N[C@H](C(=O)N3C[C@H](O)C[C@H]3C(=O)N[C@@H](C)c3ccc(-c4scnc4C)cc3)C(C)(C)C)CC2)CC1 | 22.6% | 21.7% |  |  |  |  |  |  |
| COc1cc2nc(C)nc(N[C@H](C)c3cc(N)cc(C(F)(F)F)c3)c2cc1C1CCN(CCCCCCCC(=O)N[C@H](C(=O)N2C[C@H](O)C[C@H]2C(=O)N[C@@H](C)c2ccc(-c3scnc3C)cc2)C(C)(C)C)CC1 | 7.32% | 9.25% |  |  |  |  |  |  |
| COc1cc2nc(C)nc(N[C@H](C)c3cc(N)cc(C(F)(F)F)c3)c2cc1C1CCN(C(=O)COCCCC(=O)N[C@H](C(=O)N2C[C@H](O)C[C@H]2C(=O)N[C@@H](C)c2ccc(-c3scnc3C)cc2)C(C)(C)C)CC1 | 90.2% | 54.6% | 8.9 |  | 17.4 nM | 155 nM | 97.9% | EC50 [8]: 49.3 nM |
| COc1cc2nc(C)nc(NC(C)c3cc(N)cc(C(F)(F)F)c3)c2cc1C1CCN(C(C)=O)CC1 (stereo not drawn) |  |  |  | inactive | 26.5 nM | 26.9 nM |  | IC50 (LoVo): 79.8 nM; IC50 (SW-620): 36.3 nM; IC50 (PANC-1): 23.1 nM; IC50 (NCI-H358): 74.6 nM; IC50 (A549): 134 nM; Activity [9]: inactive; IC50 (ASPC1): 36.7 nM; IC50 (MIA PaCa-2): 48.5 nM |
| COc1cc2nc(C)nc(N[C@H](C)c3cc(N)cc(C(F)(F)F)c3)c2cc1C1CCN(C(=O)C2CN(CCC(=O)N[C@H](C(=O)N3C[C@H](O)C[C@H]3C(=O)N[C@@H](C)c3ccc(-c4scnc4C)cc3)C(C)(C)C)C2)CC1 | 11.2% | 9.8% |  |  |  |  |  |  |
| COc1cc2nc(C)nc(N[C@H](C)c3cc(N)cc(C(F)(F)F)c3)c2cc1C1CCN(C(=O)CCOCCC(=O)N[C@H](C(=O)N2C[C@H](O)C[C@H]2C(=O)N[C@@H](C)c2ccc(-c3scnc3C)cc2)C(C)(C)C)CC1 | 22.9% | 0% | 2.8 | inactive | 33.6 nM | 95.4 nM | 37.6% |  |
| COc1cc2nc(C)nc(N[C@H](C)c3cc(N)cc(C(F)(F)F)c3)c2cc1C1CCN(C(=O)CCCCC(=O)N[C@H](C(=O)N2C[C@H](O)C[C@H]2C(=O)N[C@@H](C)c2ccc(-c3scnc3C)cc2)C(C)(C)C)CC1 | 37% | 16.4% | 2.8 | inactive | 26.7 nM | 75.7 nM | 42.9% |  |
| COc1cc2nc(C)nc(N[C@H](C)c3cc(N)cc(C(F)(F)F)c3)c2cc1C1CCN(C(=O)COCCOCC(=O)N[C@H](C(=O)N2C[C@H](O)C[C@H]2C(=O)N[C@@H](C)c2ccc(-c3scnc3C)cc2)C(C)(C)C)CC1 | 62.5% | 19.6% |  |  |  |  |  |  |
| COc1cc2nc(C)nc(N[C@H](C)c3cc(N)cc(C(F)(F)F)c3)c2cc1C1CCN(C(=O)CCCOCC(=O)N[C@H](C(=O)N2C[C@H](O)C[C@H]2C(=O)N[C@@H](C)c2ccc(-c3scnc3C)cc2)C(C)(C)C)CC1 | 6.52% | 1.36% | 2.3 | inactive | 27.8 nM | 63.5 nM | 20.9% |  |
